In patent US7504517B2, “Kv1.5 potassium channel inhibitors” (Wyeth, priority 2006, dated 2009) one finds inhibition data, which are given here for 33 compounds.

The target of the test is T1, Kv1.5 (Homo sapiens, UniProt P22460).
T1 construct: expressed in transfected cells; host or cells: HEK or LTK- cells
T1 sequence (P22460 whole entry): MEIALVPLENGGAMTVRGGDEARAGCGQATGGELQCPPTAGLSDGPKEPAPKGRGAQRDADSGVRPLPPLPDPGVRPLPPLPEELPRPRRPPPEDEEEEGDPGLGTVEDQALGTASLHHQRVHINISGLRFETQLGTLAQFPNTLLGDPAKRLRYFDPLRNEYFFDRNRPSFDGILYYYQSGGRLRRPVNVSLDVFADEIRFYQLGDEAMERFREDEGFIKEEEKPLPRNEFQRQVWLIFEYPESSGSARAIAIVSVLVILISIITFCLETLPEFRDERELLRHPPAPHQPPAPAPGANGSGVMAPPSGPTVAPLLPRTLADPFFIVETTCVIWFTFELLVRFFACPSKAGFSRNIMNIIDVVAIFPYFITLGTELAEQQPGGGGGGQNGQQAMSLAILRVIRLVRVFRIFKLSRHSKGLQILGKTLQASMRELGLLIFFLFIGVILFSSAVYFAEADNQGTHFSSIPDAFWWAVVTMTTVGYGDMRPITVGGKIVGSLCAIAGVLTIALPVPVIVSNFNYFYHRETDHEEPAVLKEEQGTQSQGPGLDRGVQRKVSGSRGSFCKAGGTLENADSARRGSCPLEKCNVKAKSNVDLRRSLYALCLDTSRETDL
Briefly: Kv1.5 Patch Clamp EP. It counts as cell-based. To be noted: 1.0 μM, single point; whole cell patch clamp, Kv1.5 stably over expressed in HEK or LTK- cells. On the procedure: The external solution is standard Tyrodes solution. […] Inhibition was measured at the end of the 1 second pulses and expressed relative to controls. Initial Kv1.5 inhibition is estimated by single point determinations done at 1 μM.
(The patch-clamp technique gives a direct electrical read-out from membranes.)
In turn, `COc1ccc(CCN2C(=O)N(NC(=O)Cc3cccnc3)CC2c2ccc(C3CC3)cc2)cc1` (stereo not drawn) [Compound 122, N-{4-(4-cyclopropylphenyl)-3-[2-(4-methoxyphenyl)ethyl]-2-oxoimidazolidin-1-yl}-2-pyridin-3-ylacetamide] displayed an inhibition at 1 µM of 36%. `CCN(CC)c1ccc(CNN2CC(c3ccc(C(C)(C)C)cc3)N(CCc3ccc(OC)cc3)C2=O)cc1` (stereo not drawn) [Compound 123, 4-(4-tert-butylphenyl)-1-{[4-(diethylamino)benzyl]amino}-3-[2-(4-methoxyphenyl)ethyl]imidazolidin-2-one] registered an inhibition at 1 µM of 25%. For the compound `COc1ccc(CCN2C(=O)N(N3CCCS3(=O)=O)CC2c2ccc(C3CC3)cc2)cc1` (stereo not drawn) [Compound 124, 4-(4-cyclopropylphenyl)-1-(1,1-dioxidoisothiazolidin-2-yl)-3-[2-(4-methoxyphenyl)ethyl]imidazolidin-2-one], 1 µM produced 38% inhibition. The compound `COc1ccc(CCN2C(=O)N(NS(=O)(=O)CCN3CCOCC3)CC2c2ccc3c(c2)OCCO3)cc1` (stereo not drawn) [Compound 125, N-{4-(2,3-dihydro-1,4-benzodioxin-6-yl)-3-[2-(4-methoxyphenyl)ethyl]-2-oxoimidazolidin-1-yl}-2-morpholin-4-ylethanesulfonamide] came in with an inhibition at 1 µM of 42%. Compound `COc1ccc(CCCN2C(=O)N(NS(=O)(=O)CS(C)(=O)=O)CC2c2ccc(OC)cc2)cc1` (stereo not drawn) [Compound 126, N-{4-(4-methoxyphenyl)-3-[3-(4-methoxyphenyl)propyl]-2-oxoimidazolidin-1-yl}-1-(methylsulfonyl)methanesulfonamide] had an inhibition at 1 µM of 46%.

`COc1ccc(CCN2C(=O)N(N)CC2Cc2ccc(F)cc2)cc1` (stereo not drawn) [Compound 129, 1-amino-4-(4-fluorobenzyl)-3-[2-(4-methoxyphenyl)ethyl]imidazolidin-2-one] gave an inhibition at 1 µM of 4%. `COc1ccc(CCN2C(=O)N(N3CCN(C(=O)N(C)C)CC3)CC2c2ccc(C(C)(C)C)cc2)cc1` (stereo not drawn) [Compound 130, 4-{4-(4-tert-butylphenyl)-3-[2-(4-methoxyphenyl)ethyl]-2-oxoimidazolidin-1-yl}-N,N-dimethylpiperazine-1-carboxamide]: the inhibition at 1 µM came to 37%. Regarding `COc1ccc(CCN2C(=O)N(NS(=O)(=O)CC(=O)N(C)CC(=O)N(C)C)CC2c2ccc(C3CC3)cc2)cc1` (stereo not drawn) [Compound 132, 2-(N-(4-(4-cyclopropylphenyl)-3-(4-methoxyphenethyl)-2-oxoimidazolidin-1-yl)sulfamoyl)-N-(2-(dimethylamino)-2-oxoethyl)-N-methylacetamide], at 1 µM the inhibition was 3%.

In turn, `COc1ccc(CCN2C(=O)N(NS(=O)(=O)Cc3cccnc3)CC2C2(c3ccccc3)CC2)cc1` (stereo not drawn) [Compound 134, N-{3-[2-(4-methoxyphenyl)ethyl]-2-oxo-4-(1-phenylcyclopropyl)imidazolidin-1-yl}-1-pyridin-3-ylmethanesulfonamide] showed an inhibition at 1 µM of 22%.

On to `COc1ccc(CCN2C(=O)N(NS(=O)(=O)CC(=O)NCC3CC3)C[C@H]2c2ccc(OC)cc2)cc1` [Compound 136, N-(cyclopropylmethyl)-2-({(4R)-4-(4-methoxyphenyl)-3-[2-(4-methoxyphenyl)ethyl]-2-oxoimidazolidin-1-yl}sulfamoyl)acetamide], for which the inhibition at 1 µM was 44%.

For the compound `COc1ccc(CCN2C(=O)N(NS(C)(=O)=O)CC2c2ccc(F)cc2)cc1` (stereo not drawn) [Compound 137, N-{4-(4-fluorophenyl)-3-[2-(4-methoxyphenyl)ethyl]-2-oxoimidazolidin-1-yl}methanesulfonamide], the inhibition at 1 µM was 4%.

`COc1ccc(CCN2C(=O)N(NCc3nccn3C)CC2c2ccc(C)c(C)c2)cc1` (stereo not drawn) [Compound 138, 4-(3,4-dimethylphenyl)-3-[2-(4-methoxyphenyl)ethyl]-1-{[(1-methyl-1H-imidazol-2-yl)methyl]amino}imidazolidin-2-one] had an inhibition at 1 µM of 7%. `COc1ccc(CCN2C(=O)N(NS(=O)(=O)Cc3cccnc3)CC2c2ccc(F)cc2)cc1` (stereo not drawn) [Compound 139, N-{4-(4-fluorophenyl)-3-[2-(4-methoxyphenyl)ethyl]-2-oxoimidazolidin-1-yl}-1-pyridin-3-ylmethanesulfonamide] displayed an inhibition at 1 µM of 14%. `COc1ccc(CCN2C(=O)N(NS(C)(=O)=O)CC2C2(c3ccccc3)CC2)cc1` (stereo not drawn) [Compound 140, N-{3-[2-(4-methoxyphenyl)ethyl]-2-oxo-4-(1-phenylcyclopropyl)imidazolidin-1-yl}methanesulfonamide] yielded an inhibition at 1 µM of 6%. In turn, `COCCOc1ccc(C2CN(N)C(=O)N2CCc2ccc(OC)cc2)cc1` (stereo not drawn) [Compound 141, 1-amino-4-[4-(2-methoxyethoxy)phenyl]-3-[2-(4-methoxyphenyl)ethyl]imidazolidin-2-one] returned an inhibition at 1 µM of 4%. Under `COc1ccc(CCN2C(=O)N(NS(C)(=O)=O)CC2c2ccc3ncccc3c2)cc1` (stereo not drawn) [Compound 143, N-{3-[2-(4-methoxyphenyl)ethyl]-2-oxo-4-quinolin-6-ylimidazolidin-1-yl}methanesulfonamide] stands 21%; under `COc1ccc(CCN2C(=O)N(NS(C)(=O)=O)CC2c2ccc3c(c2)OCCO3)cc1OC` (stereo not drawn) [Compound 144, N-{4-(2,3-dihydro-1,4-benzodioxin-6-yl)-3-[2-(3,4-dimethoxyphenyl)ethyl]-2-oxoimidazolidin-1-yl}methanesulfonamide], 16%; under `COc1ccc(CCN2C(=O)N(NC(=O)c3cnccn3)CC2c2ccc(C(C)(C)C)cc2)cc1` (stereo not drawn) [Compound 147, N-{4-(4-tert-butylphenyl)-3-[2-(4-methoxyphenyl)ethyl]-2-oxoimidazolidin-1-yl}pyrazine-2-carboxamide], 42%.

`COc1ccc(CCN2C(=O)N(NS(=O)(=O)C(F)(F)F)CC2c2ccc(C(C)(C)C)cc2)cc1` (stereo not drawn) [Compound 148, N-{4-(4-tert-butylphenyl)-3-[2-(4-methoxyphenyl)ethyl]-2-oxoimidazolidin-1-yl}-1,1,1-trifluoromethanesulfonamide]: the inhibition at 1 µM was 2%.

As to `COc1ccc(CCN2C(=O)N(NS(C)(=O)=O)CC2c2ccc(OC)nc2)cc1` (stereo not drawn) [Compound 149, N-{3-[2-(4-methoxyphenyl)ethyl]-4-(6-methoxypyridin-3-yl)-2-oxoimidazolidin-1-yl}methanesulfonamide], the inhibition at 1 µM amounted to 9%. Regarding `COc1ccc(CCN2C(=O)N(N3CCN(C(N)=O)CC3)CC2c2ccc(C(C)(C)C)cc2)cc1` (stereo not drawn) [Compound 150, 4-{4-(4-tert-butylphenyl)-3-[2-(4-methoxyphenyl)ethyl]-2-oxoimidazolidin-1-yl}piperazine-1-carboxamide], the inhibition at 1 µM was 17%. Take `COCCOc1ccc(C2CN(NS(C)(=O)=O)C(=O)N2CCc2ccc(OC)cc2)cc1` (stereo not drawn) [Compound 151, N-{4-[4-(2-methoxyethoxy)phenyl]-3-[2-(4-methoxyphenyl)ethyl]-2-oxoimidazolidin-1-yl}methanesulfonamide]: at 1 µM the inhibition was 8%. `COc1ccc(C2CN(NS(C)(=O)=O)C(=O)N2CCc2ccc(OC(F)(F)F)cc2)cc1` (stereo not drawn) [Compound 152, N-[4-(4-methoxyphenyl)-2-oxo-3-{2-[4-(trifluoromethoxy)phenyl]ethyl}imidazolidin-1-yl]methanesulfonamide] gave an inhibition at 1 µM of 16%. Compound `COc1ccc(CCN2C(=O)N(NS(=O)(=O)CS(C)(=O)=O)CC2c2ccc(OC)cc2)cc1` (stereo not drawn) [Compound 153, N-{4-(4-methoxyphenyl)-3-[2-(4-methoxyphenyl)ethyl]-2-oxoimidazolidin-1-yl}-1-(methylsulfonyl)methanesulfonamide] yielded an inhibition at 1 µM of 12%. In turn, `COc1ccc(C2CN(N)C(=O)N2CCc2ccc(OC(F)F)cc2)cc1` (stereo not drawn) [Compound 154, 1-amino-3-{2-[4-(difluoromethoxy)phenyl]ethyl}-4-(4-methoxyphenyl)imidazolidin-2-one] had an inhibition at 1 µM of 7%.

For `COc1ccc(CCN2C(=O)N(N)CC2C2(c3ccccc3)CC2)cc1` (stereo not drawn) [Compound 156, 1-amino-3-[2-(4-methoxyphenyl)ethyl]-4-(1-phenylcyclopropyl)imidazolidin-2-one], the inhibition at 1 µM amounted to 7%. `COc1ccc(CCN2C(=O)N(NS(C)(=O)=O)CC2c2ccc(OC)c(OC)c2)cc1` (stereo not drawn) [Compound 158, N-{4-(3,4-dimethoxyphenyl)-3-[2-(4-methoxyphenyl)ethyl]-2-oxoimidazolidin-1-yl}methanesulfonamide]: the inhibition at 1 µM amounted to 10%. In the case of `COc1ccc(CCN2C(=O)N(N)CC2c2ccc(C)cc2)cc1` (stereo not drawn) [Compound 159, 1-amino-3-[2-(4-methoxyphenyl)ethyl]-4-(4-methylphenyl)imidazolidin-2-one], the inhibition at 1 µM stood at 4%.

Consider `COc1ccc(CCN2C(=O)N(NCc3cc[n+]([O-])cc3)CC2c2ccc(C)c(C)c2)cc1` (stereo not drawn) [Compound 161, 4-(3,4-dimethylphenyl)-3-[2-(4-methoxyphenyl)ethyl]-1-{[(1-oxidopyridin-4-yl)methyl]amino}imidazolidin-2-one], for which the inhibition at 1 µM stood at 8%. Under `CCC1(CC)CN(NS(=O)(=O)Cc2cccnc2)C(=O)N1CCc1ccc(OC)cc1` [Compound 162, N-{4,4-diethyl-3-[2-(4-methoxyphenyl)ethyl]-2-oxoimidazolidin-1-yl}-1-pyridin-3-ylmethanesulfonamide] stands 8%. Under `COc1ccc(CCN2C(=O)N(N)CC2C2(c3ccc(F)cc3)CC2)cc1` (stereo not drawn) [Compound 163, 1-amino-4-[1-(4-fluorophenyl)cyclopropyl]-3-[2-(4-methoxyphenyl)ethyl]imidazolidin-2-one] stands 16%; under `COc1ccc(CCN2C(=O)N(N)CC2c2ccc(OC(C)C)cc2)cc1` (stereo not drawn) [Compound 164, 1-amino-4-(4-isopropoxyphenyl)-3-[2-(4-methoxyphenyl)ethyl]imidazolidin-2-one], 2%. As to `COc1ccc(CCN2C(=O)N(NS(C)(=O)=O)CC2C2(c3ccc(F)cc3)CC2)cc1` (stereo not drawn) [Compound 165, N-{4-[1-(4-fluorophenyl)cyclopropyl]-3-[2-(4-methoxyphenyl)ethyl]-2-oxoimidazolidin-1-yl}methanesulfonamide], testing at 1 µM gave an inhibition of 11%.

One may read the inhibition as the share of the control response that was lost under treatment.
